Broadly, the IC50 is the concentration needed to halve the response being measured. Low readings indicate greater potency in that assay, high ones weaker potency in that assay.

One data set has as its target Histone deacetylase 2 (Homo sapiens, UniProt Q92769). Description: Inhibition of HDAC2 (unknown origin) using Boc-Lys(acetyl)-AMC as substrate preincubated for 5 mins followed by substrate addition measured after 30 mins by fluorescence assay. The class given is ADME.
Data set [1] addresses Histone deacetylase (HDAC1 and HDAC2) (Homo sapiens, UniProt Q13547+Q92769). Description: Inhibition of HDAC1/2 in human HeLa nuclear extract using Boc-Lys(acetyl)-AMC as substrate preincubated for 5 mins followed by substrate addition measured after 30 mins by fluorescence assay. The class given is ADME, protein assay.
The target in the next data set is T1, Histone deacetylase 8 (Homo sapiens, UniProt Q9BY41).
T1 sequence (Q9BY41 whole entry): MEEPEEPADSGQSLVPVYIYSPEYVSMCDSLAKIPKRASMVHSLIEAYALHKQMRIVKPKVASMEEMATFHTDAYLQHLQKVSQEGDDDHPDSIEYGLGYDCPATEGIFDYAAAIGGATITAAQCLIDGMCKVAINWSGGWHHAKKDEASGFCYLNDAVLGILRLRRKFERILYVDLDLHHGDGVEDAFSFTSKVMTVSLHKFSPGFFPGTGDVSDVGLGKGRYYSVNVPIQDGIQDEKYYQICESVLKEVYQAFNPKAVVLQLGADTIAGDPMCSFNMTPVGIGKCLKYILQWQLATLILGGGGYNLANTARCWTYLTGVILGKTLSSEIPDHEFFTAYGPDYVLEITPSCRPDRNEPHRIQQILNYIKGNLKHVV
The experiment in a line: Inhibition of HDAC8 (unknown origin) using Boc-Lys(trifluoroacetyl)-AMC as substrate preincubated for 5 mins followed by substrate addition measured after 30 mins by fluorescence assay.

Data set [2] addresses T2, Protein deacetylase HDAC6 (Homo sapiens, UniProt Q9UBN7).
T2 sequence (Q9UBN7 whole entry): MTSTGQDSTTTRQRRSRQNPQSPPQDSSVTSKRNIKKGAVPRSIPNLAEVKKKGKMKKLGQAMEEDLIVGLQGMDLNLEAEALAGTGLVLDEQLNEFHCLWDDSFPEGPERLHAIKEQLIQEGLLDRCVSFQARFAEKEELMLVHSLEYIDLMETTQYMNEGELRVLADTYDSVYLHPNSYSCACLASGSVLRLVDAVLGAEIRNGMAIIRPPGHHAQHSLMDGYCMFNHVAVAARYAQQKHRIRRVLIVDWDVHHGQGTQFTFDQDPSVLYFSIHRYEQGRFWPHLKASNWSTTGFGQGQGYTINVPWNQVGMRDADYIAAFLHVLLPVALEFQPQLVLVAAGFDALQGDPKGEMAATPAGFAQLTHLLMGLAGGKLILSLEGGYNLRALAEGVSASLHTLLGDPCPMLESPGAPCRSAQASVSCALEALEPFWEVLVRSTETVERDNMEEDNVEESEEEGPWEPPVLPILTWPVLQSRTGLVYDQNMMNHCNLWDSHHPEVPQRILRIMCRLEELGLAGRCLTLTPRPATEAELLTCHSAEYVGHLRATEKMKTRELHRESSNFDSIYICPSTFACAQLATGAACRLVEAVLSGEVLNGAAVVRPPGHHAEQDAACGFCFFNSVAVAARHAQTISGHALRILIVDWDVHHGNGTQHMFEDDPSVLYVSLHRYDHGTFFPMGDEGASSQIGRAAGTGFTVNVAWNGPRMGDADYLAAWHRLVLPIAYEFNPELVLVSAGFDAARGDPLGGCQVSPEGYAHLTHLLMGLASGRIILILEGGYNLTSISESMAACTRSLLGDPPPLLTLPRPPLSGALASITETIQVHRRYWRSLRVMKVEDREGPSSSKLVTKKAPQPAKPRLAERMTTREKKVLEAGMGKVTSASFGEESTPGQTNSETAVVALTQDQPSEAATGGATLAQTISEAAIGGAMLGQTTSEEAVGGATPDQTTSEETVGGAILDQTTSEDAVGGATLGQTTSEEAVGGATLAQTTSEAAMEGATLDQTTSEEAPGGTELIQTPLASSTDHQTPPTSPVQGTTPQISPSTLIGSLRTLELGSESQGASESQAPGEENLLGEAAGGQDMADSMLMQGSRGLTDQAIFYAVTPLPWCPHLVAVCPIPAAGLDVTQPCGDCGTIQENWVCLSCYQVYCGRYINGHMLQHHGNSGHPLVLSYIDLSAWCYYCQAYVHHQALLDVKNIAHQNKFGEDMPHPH
Description: Inhibition of HDAC6 (unknown origin) using Boc-Lys(acetyl)-AMC as substrate preincubated for 5 mins followed by substrate addition measured after 30 mins by fluorescence assay.

The nature of data set [3]: Antiproliferative activity against human SK-N-BE(2) cells after 48 hrs by MTT assay. The class given is functional, cell-based. To be noted: SKNBE2, 48 h. (In general: Formazan colour is commonly taken as a measure of viable cells.)
For the next data set, the system named is HEL. The experiment in a line: Antiproliferative activity against human HEL cells after 48 hrs by MTT assay. The class given is functional, cell-based.
For another data set, the system named is HeLa. Description: Antiproliferative activity against human HeLa cells after 48 hrs by MTT assay. The class given is functional, cell-based.
A further data set concerns K562. The experiment in a line: Antiproliferative activity against human K562 cells after 48 hrs by MTT assay. As to conditions: K562, 48 h; call rule not given here. The class given is functional, cell-based.
In another data set the test system is Jurkat. Description: Antiproliferative activity against human Jurkat cells after 48 hrs by MTT assay. The class given is functional, cell-based.
The subject of a further data set is MOLT-4. Description: Antiproliferative activity against human MOLT4 cells after 48 hrs by MTT assay. The class given is functional, cell-based. As to conditions: MOLT-4, 48 h.
Another data set deals with PC-3. The experiment in a line: Antiproliferative activity against human PC3 cells after 48 hrs by MTT assay. The class given is functional, cell-based. As to conditions: PC-3, 48 h.
The target in data set [4] is Histone deacetylase 1/2/3 (Homo sapiens, UniProt Q13547+O15379+Q92769). Description: Inhibition of HDAC1/2/3 in human HeLa cells assessed as increase in acetyl-histone H4 level at 2 uM after 12 hrs by Western blot analysis. In general terms: In western blotting, separated proteins are transferred to a membrane and probed.
Data set [5] has as its target T2, Protein deacetylase HDAC6. The experiment in a line: Inhibition of HDAC6 in human HeLa cells assessed as increase in acetyl-tubulin level at 2 uM after 12 hrs by Western blot analysis. The class given is cell-based.
Data set [6] is filed under the species Homo sapiens. The experiment in a line: Selectivity ratio of IC50 for HDAC2 (unknown origin) to IC50 for HDAC8 (unknown origin).
For data set [7], the species on record is Homo sapiens. Description: Selectivity ratio of IC50 for HDAC6 (unknown origin) to IC50 for HDAC8 (unknown origin).

Bounds are passed on as bounds.

Sequence of Histone deacetylase 2 (Q92769 whole entry): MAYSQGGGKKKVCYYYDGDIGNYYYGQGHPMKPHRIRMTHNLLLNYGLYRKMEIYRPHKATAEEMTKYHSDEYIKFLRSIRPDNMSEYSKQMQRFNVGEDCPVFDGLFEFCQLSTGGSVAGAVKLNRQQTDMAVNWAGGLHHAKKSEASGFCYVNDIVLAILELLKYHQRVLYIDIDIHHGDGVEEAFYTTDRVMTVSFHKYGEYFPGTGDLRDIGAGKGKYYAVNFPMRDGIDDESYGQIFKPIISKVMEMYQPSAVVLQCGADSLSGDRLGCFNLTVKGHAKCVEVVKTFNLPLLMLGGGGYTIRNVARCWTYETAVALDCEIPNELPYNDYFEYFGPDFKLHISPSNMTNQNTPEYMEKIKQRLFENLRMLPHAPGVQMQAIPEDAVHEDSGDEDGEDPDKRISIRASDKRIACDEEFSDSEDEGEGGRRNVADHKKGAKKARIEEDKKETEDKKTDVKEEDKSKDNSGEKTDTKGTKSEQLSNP

Regarding `CC(C)[C@H](NS(=O)(=O)c1cccc(C(=O)NO)c1)C(=O)Nc1ccccc1`, the IC50 against Histone deacetylase 2 is greater than 100 µM; in data set [1] it was greater than 20 µM; on Histone deacetylase 8, 33.9 µM; in data set [2] it was 40.5 µM.

Consider `O=C(NO)c1cccc(S(=O)(=O)N[C@@H](Cc2c[nH]c3ccccc23)C(=O)Nc2ccccc2)c1`, for which the half-maximal inhibitory concentration (IC50) was 70.4 µM against Histone deacetylase 2, greater than 20 µM in [1], 3 µM against Histone deacetylase 8 and 5.9 µM in [2].

For `O=C(NO)c1cccc(S(=O)(=O)N[C@@H](Cc2c[nH]c3ccccc23)C(=O)NCc2ccccc2)c1`, the half-maximal inhibitory concentration (IC50) at Histone deacetylase 2 was greater than 100 µM; in [1] it was greater than 20 µM; at Histone deacetylase 8, 19 µM; in data set [2] it was 24.5 µM.

`COc1ccc(Cn2ccc3ccc(C(=O)NO)cc32)cc1`: the half-inhibitory concentration (IC50) is 16.9 µM in data set [3]; 10.8 µM in the data set with HEL; greater than 25 µM in the data set with HeLa; greater than 25 µM in the data set on K562; 4.5 µM in the data set on Jurkat; 9.4 µM in the data set on MOLT-4. In the data set with PC-3, this compound displayed an IC50 of 19.2 µM.

For the compound `O=C(NO)c1cccc(S(=O)(=O)N[C@@H](Cc2c[nH]c3ccccc23)C(=O)Nc2ccc(Cl)cc2)c1`, in data set [1], the IC50 is greater than 20 µM.

For `O=C(NO)c1cccc(S(=O)(=O)Nc2ccccc2)c1`, the INH result in data set [4] is on record as “Not Active”. The IC50 is 14.5 µM on Histone deacetylase 2; greater than 50 µM with HEL; greater than 50 µM in the data set with HeLa; greater than 20 µM in [1]; 0.05 µM against Histone deacetylase 8; 1.5 µM in [2]. Also, the IC50 with K562 was greater than 50 µM; in the data set on Jurkat it was 28.4 µM; in the data set on MOLT-4 it was 22.6 µM; in the data set with PC-3, greater than 50 µM. The “inhibition (INH)” value in data set [5] is listed as “Not Active”. Also, the Ratio IC50 is greater than 180 in the data set filed under Homo sapiens [6] and 30 in the data set filed under Homo sapiens [7].

`COc1ccc(NC(=O)[C@H](Cc2c[nH]c3ccccc23)NS(=O)(=O)c2cccc(C(=O)NO)c2)cc1` had a half-inhibitory concentration (IC50) in data set [1] greater than 20 µM.

`C[C@H](NS(=O)(=O)c1cccc(C(=O)NO)c1)C(=O)Nc1ccccc1`: the concentration for half-maximal inhibition (IC50) is greater than 100 µM on Histone deacetylase 2, greater than 20 µM in data set [1], 24.2 µM against Histone deacetylase 8 and 27.7 µM in data set [2].

`O=C(/C=C/c1cccc(S(=O)(=O)Nc2ccccc2)c1)NO` [BELINOSTAT]: the IC50 in data set [3] is 0.31 µM; in the data set with HEL, 0.1 µM; with HeLa, 0.51 µM; in the data set on Jurkat it was 0.07 µM; in the data set with MOLT-4, 0.14 µM.

In the case of `O=C(NO)c1cccc(S(=O)(=O)NCc2ccccc2)c1`, in data set [4], the INH result is listed as “Not Active”. The half-maximal inhibitory concentration (IC50) was 36.2 µM in [3]; 47.1 µM on Histone deacetylase 2; greater than 50 µM with HEL; greater than 50 µM in the data set with HeLa; greater than 20 µM in data set [1]; 0.08 µM on Histone deacetylase 8. Further, the IC50 in data set [2] is 2.6 µM; in the data set with K562, greater than 50 µM; in the data set with Jurkat, 12.2 µM; with MOLT-4, 11.1 µM; in the data set on PC-3, greater than 50 µM. In addition, the “inhibition (INH)” value in data set [5] is reported as “Not Active”. The Ratio IC50 was greater than 180 in the data set listed under Homo sapiens [6] and 30 in the data set filed under Homo sapiens [7].

Consider `O=C(CCCCCCC(=O)Nc1ccccc1)NO` [VORINOSTAT], for which, in data set [5], the “inhibition (INH)” value is given as “Active”.

Compound `COc1ccc(NC(=O)[C@@H](NS(=O)(=O)c2cccc(C(=O)NO)c2)c2ccccc2)cc1` returned an IC50 in data set [1] greater than 20 µM.

With `O=C(NO)c1cccc(S(=O)(=O)N[C@H](C(=O)Nc2ccc(Cl)cc2)c2ccccc2)c1`, in data set [1], the half-inhibitory concentration (IC50) is greater than 20 µM.

In data set [1], `O=C(NO)c1cccc(S(=O)(=O)N[C@@H](Cc2c[nH]c3ccccc23)C(=O)Nc2ccc(F)cc2)c1` yielded an IC50 greater than 20 µM.

In data set [1], `O=C(NO)c1cccc(S(=O)(=O)N[C@H](C(=O)Nc2ccc(F)cc2)c2ccccc2)c1` returned a half-maximal inhibitory concentration (IC50) greater than 20 µM.

`O=C(CNS(=O)(=O)c1cccc(C(=O)NO)c1)Nc1ccccc1`: the IC50 is greater than 100 µM on Histone deacetylase 2, greater than 20 µM in data set [1], 3.5 µM on Histone deacetylase 8 and 14.1 µM in data set [2].

Turning to `O=C(NO)c1cccc(S(=O)(=O)NCCc2ccccc2)c1`, in data set [4], the INH result was “Not Active”. Besides, the IC50 in [3] is 25.5 µM; on Histone deacetylase 2 it was 11.2 µM; with HEL, 32.8 µM; in the data set on HeLa it was greater than 50 µM; in data set [1] it was greater than 20 µM; on Histone deacetylase 8, 0.06 µM. Further, the concentration for half-maximal inhibition (IC50) in [2] was 1.8 µM; in the data set on K562, greater than 50 µM; in the data set on Jurkat it was 7.9 µM; in the data set with MOLT-4, 6.2 µM; with PC-3, greater than 50 µM. In addition, the “inhibition (INH)” value in data set [5] is “Not Active”. Moreover, the results for the Ratio IC50 in the data set filed under Homo sapiens [6] and in the data set listed under Homo sapiens [7] were greater than 180 and 30, respectively.

With `CN1CCc2c(c3ccccc3n2Cc2ccc(C(=O)NO)cc2)C1` [TUBASTATIN A], the “inhibition (INH)” value in data set [5] was “Active”.

On to `O=C(NO)c1cccc(S(=O)(=O)N[C@H](C(=O)Nc2ccccc2)c2ccccc2)c1`, for which the IC50 was greater than 100 µM at Histone deacetylase 2, greater than 20 µM in data set [1], 0.91 µM on Histone deacetylase 8 and 6.7 µM in [2].

Consider `O=C(NO)c1cccc(S(=O)(=O)N[C@H](C(=O)NCc2ccccc2)c2ccccc2)c1`, for which the half-maximal inhibitory concentration (IC50) against Histone deacetylase 2 is greater than 100 µM; in data set [1], greater than 20 µM; at Histone deacetylase 8 it was 9.2 µM; in data set [2], 34 µM.

The record behind these values is ChEMBL document CHEMBL4196083, “Discovery of meta-sulfamoyl N-hydroxybenzamides as HDAC8 selective inhibitors” (Eur J Med Chem, 2018).
